Values after ≈ are worked out from the molar mass of the structure shown. “Also recorded” adds a separate entry of the source.
Columns and labels:
SW620 cells = assay: Annexin V-FITC apoptosis assay; format: cell-based, human; conditions: 12 h, compared to DMSO; positive control SN-38
Description: SW620 cells were plated at 30,000 cells/well in 96-well plates. […] Cells were then rinsed 2× with cold PBS, 1× with cold Annexin-V staining buffer (10 mM HEPES, pH 7.4, 140 mM NaCl, 2.5 mM CaCl2), and then incubated with Annexin-V FITC at 1:100 for 30 min in the dark. Cells were then rinsed 2× with Annexin-V staining buffer and FITC intensity was measured using an EnVision® plate reader (PerkinElmer, Hopkinton, Mass.).

PDTO CRC102 = assay: PDTO viability assay (CellTiter-Blue); format: cell-based; conditions: Homo sapiens, 72 h, read-out: cytotoxicity EC50
Description: CRC patient tumor tissues were obtained from the UCCC GI tissue bank and expanded following established protocols. [Morin et al., 1997]. Briefly, cells were seeded at 5,000 cells per well in 96-well plates and cultured by established methods [Franken et al., 2006] allowing PDTO formation over 72 h. […] PDTO cell viability was measured using CellTiter-Blue® reagent (Promega, Madison, Wis.). Media (80 μL) was aspirated from wells and 80 μL of the reagent was added and incubated for 4 h and cell viability was measured by fluorescence intensity using excitation 560 excitation and 590 emission.

[1] = Aqueous solubility in PBS; format: physicochemical; conditions: aqueous with cosolvent or surfactant or cyclodextrin; 10% DMSO in PBS (pH 7.4)
Description: The measurement of solubility in PBS was conducted in duplicate experiments. The consensus LogP (CLogP) values were obtained using the SwissADME web tools. [Daina et al., 2017]

[2] = Pharmacokinetics in CD-1 mice
Description: Whole blood was harvested at specific time points and the separated plasma frozen at −80° C. for storage or used for LC-MS/MS analysis.

[3] = test system: CRC042 patient-derived tumor organoids; assay: Patient tumor organoid cytotoxicity; format: cell-based; conditions: Homo sapiens; single agent, Table 4A
TCF-transcription = assay: TOPflash TCF-transcriptional reporter assay; format: cell-based, human; conditions: TOPflash reporter in CRC cell lines (SW620, HCT116, DLD1CHD1L-OE), 24 h; listed as 8
Description: TOPflash assay (Millipore, Billerica, Mass.) was used to evaluate TCF transcriptional activity in CRC cells. A total of 20,000 cells per well were plated into 96-well white plates and transfected with TransIT®-LT1 transfection reagent (Mirus, Madison, Wis.). Cells were incubated with transfection mix for 24 h. Next, cells were washed with phosphate-buffered solution (PBS) and a 1:1 ratio of PBS:ONE-Glo™ luciferase reagent Promega (Madison, Wis.) was added and the luminescence was detected within 10 min. A duplicate experiment was conducted to measure cell viability using CellTiter-Glo® Luminescent Cell Viability Assay (Promega, Madison, Wis.), which was used to normalize TOPflash luminescence to obtain the fold change in TCF activity. Experiments were replicated 2× (n=3 for each experiment).
TCF-transcriptional Reporter Assay. […] Afterwards, cells from the white solid bottom plate were carefully washed with PBS and a 1:1 ratio of PBS:One-Glo Luciferase Assay System (Promega) was added, incubated for 10 min, and luminescence was quantified on Envision plate reader (PerkinElmer) for TCF-activity. As a control, cells from the clear plate were lysed with Mammalian Cell Lysis Buffer (Promega) and the total protein from each well was quantified with BCA assay (ThermoFisher).

Row | SMILES | apoptosis (annexin-V staining) (SW620 cells) | EC50 (PDTO CRC102) [µM] | solubility [1] [mg/mL] | AUC(0-t) ([2]; female, CD-1, mouse, plasma, ip, 50 mg/kg) [µg·h/mL] | Cmax ([2]; female, CD-1, mouse, plasma, ip, 50 mg/kg, CMax (ng/mL), single i.p. 50 mg/kg) [µg/mL] | CMax (ng/mL) ([2]; plasma, single i.p. 50 mg/kg, 50 mg/kg) | CL ([2]; single i.p. 50 mg/kg) [L/h/kg] | V2 ([2]; single i.p. 50 mg/kg) [L/kg] | IC50 [3] [µM] | inhibition of TCF-transcription, in words (TCF-transcription)
1 | Cc1cc(Nc2ccc(NC(=O)Cc3cccs3)cc2)nc(N2CCCC2)n1 [Compound 6, N-(4-((6-methyl-2-(pyrrolidin-1-yl)pyrimidin-4-yl)amino)phenyl)-2-(thiophen-2-yl)acetamide] | induced significant apoptosis | 11.6 ± 2 | 0.7 (≈ 1780 µM) | 80.3 | ~30 | 29,900 ng/mL | 0.62 | 2.7 | 18.6 | –
2 | Cc1cc(Nc2ccc(NC(=O)c3c[nH]c4ccccc34)cc2)nc(N2CCCC2)n1 [Compound 6.3, N-(4-((6-methyl-2-(pyrrolidin-1-yl)pyrimidin-4-yl)amino)phenyl)-1H-indole-3-carboxamide] | – | – | – | – | – | – | – | – | – | potent low μM dose-dependent inhibition; also recorded: more potent dose dependent inhibition

Source: patent publication US20230103444A1 (The Regents of the University of Colorado, a Body Corporate, priority 2020, published 2023)
